Measurements published in patent publication US11911436B2, “Amphiphilic peptide chaperones and methods of use” (priority 2021, dated 2024).
Read-outs that look alike come from different tables or passages of the source. Marks after values point to notes of the source that are not given here. Square brackets hold non-standard residues; d marks the D form. Peptide text beside a SMILES is read from it. * marks the point of attachment. Myristoyl = CCCCCCCCCCCCCC(=O)*; dNMeL = CN[C@H](CC(C)C)C(=O)O; TMR = tetramethylrhodamine

Assays:
Proteinase K = Proteinase K (Parengyodontium album, UniProt P06873); experiment: Proteinase K incubation, HPLC profiles; assay type: in vitro ADME; settings: 100 μg peptide, 10 μg Proteinase K, overnight
Chain of Proteinase K (P06873 106-384, species assumed): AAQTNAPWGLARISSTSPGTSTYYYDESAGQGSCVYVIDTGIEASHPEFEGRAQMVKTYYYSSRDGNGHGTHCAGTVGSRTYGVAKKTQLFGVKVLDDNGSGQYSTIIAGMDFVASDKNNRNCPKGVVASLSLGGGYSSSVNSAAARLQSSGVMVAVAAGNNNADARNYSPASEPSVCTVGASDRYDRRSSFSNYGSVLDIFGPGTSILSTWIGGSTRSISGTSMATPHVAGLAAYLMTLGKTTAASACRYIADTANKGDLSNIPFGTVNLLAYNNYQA

[1] = test system: ARPE-19 cells, hiPSC-NSC cultures, and NSC-derived neurons; experiment: Peptide entry into cells (fluorescent label); settings: fluorescently labeled peptide
human red blood cells = experiment: Melittin-induced hemolysis of human RBC; assay type: cell-based; settings: 2% human RBC, room temperature 30 min, OD 540 nm
Description: Hemolysis of human red blood cells with melittin was measured with varying concentrations of CPAMC (FIG. 3). To 0.3 mL of 2% human RBC (red blood cell) suspension was added 2 μM melittin and/or peptides taken in 0.7 mL of PBS. The tubes were incubated at room temperature for 30 min, centrifuged, and the OD of the supernatant was measured at 540 nm. PBS and PBS containing 0.1% TritonX-100 served as negative and positive control, respectively.
The protective effect of Myr-CPAMC peptide of human red blood cells (RBC) from melittin-induced hemolysis was also examined. To 0.3 mL of 2% human RBC suspension was added to melittin and/or peptide taken in 0.7 mL of PBS. The tubes were incubated at room temperature for 30 min, centrifuged (FIG. 5A) and the OD of the supernatant was measured at 540 nm. PBS and PBS containing 0.1% TritonX-100 served as negative and positive control, respectively.

ARPE-19 cells [2] = experiment: Sodium iodate cytotoxicity, cell viability imaging; assay type: cell-based; settings: 7.5 mM sodium iodate, 24 hours
Description: Sodium iodate is a chemical that induces oxidative stress and cell death. The ability of CPPRAMC peptide to block the cytotoxic action of sodium iodate was investigated. ARPE-19 cells cultured on a 96-well plate were treated with 7.5 mM sodium iodate and/or CPPRAMC peptide for 24 hours. At the end of the incubation, cell viability imaging was done using the EarlyTox cell integrity kit (Molecular Devices, Sunnyvale, Calif.) (FIG. 6A). The percentage of dead cells in each sample was calculated from the live/dead cell imaging data using the Softmax Pro software (FIG. 6B).
The ability of Myr-CPAMC peptide to block the cytotoxic action of sodium iodate was also investigated. Authenticated ARPE-19 cells cultured on a 96-well plate were treated with 7.5 mM sodium iodate and/or Myr-CPAMC peptide for 24 hours. At the end of the incubation, cell viability imaging was done using the EarlyTox cell integrity kit (Molecular Devices, Sunnyvale, Calif.) (FIG. 7A). The percentage of dead cells in each sample was calculated from the live/dead cell imaging data using the Softmax Pro software (FIG. 7B).

ARPE-19 cells [3] = experiment: Peptide toxicity to cells, cell viability imaging; assay type: cell-based; settings: increasing peptide concentrations
Description: Cell viability imaging was performed on cells with increasing concentrations of Myr-CPAMC, with fluorescent staining used to indicate dead cells (FIG. 9A).

[4] = test system: wild-type C. elegans (N2); experiment: C. elegans N2 lifespan assay at 20° C. with peptide feeding; assay type: in vivo; settings: N2 worms; for Median Lifespan (Days ± SE): 50 μg peptide with E. coli OP50; for Increase in median survival (%): 50 μg peptide, vs control
Description: A schematic of an assay of C. elegans N2 lifespan at 20° C. is shown (FIG. 10A). This involved peptide treatment (50 μg) with E. coli OP50 as a food source. Plates were changed every second day with 50 μg fresh peptide and OP50. Scoring of survival was done every day to the last day of survival. 50 mM FUdR was added in experimental plates between D1 and D5 to prevent progeny production.

C. elegans (N2 strain) = experiment: Thermotolerance assay, continuous heat stress at 35° C.; assay type: in vivo; settings: N2 worms
Description: The lifespan of wild type C. elegans with and without peptide at a restrictive temperature was measured.
A schematic representation of the thermotolerance assay used is shown (FIG. 11A). 24 hours of 50 μg peptide treatment at 20° C. of a synchronized population of wild type C. elegans was followed by a continuous heat stress at 35° C. Worms were scored every two hours for 24 hours for survival.

CL2006 C. elegans = experiment: CL2006 lifespan at 20° C. (paralysis and death model); assay type: in vivo; settings: CL2006 worms, 50 μg peptide
Description: CL2006 C. elegans were used as a paralysis and death model. Worms are maintained at 15° C., with adult onset paralysis induced at 20° C.
50 μg CPAMC and CPPRAMC peptide or controls were added to CL2006 worms, and the fraction left alive over time at the restrictive temperature of 20° C. was quantified (FIG. 12). […] (FIG. 12).

CL4176 C. elegans = experiment: CL4176 Aβ-induced paralysis and survival assay; assay type: in vivo; settings: CL4176 worms
Description: CL4176 C. elegans is a temperature sensitive strain. Worms are maintained at 15° C. and shifted to increased temperature to cause Aβ-induced paralysis in adults. This has been used as a C. elegans model of Alzheimer's disease.
A scheme of a paralysis assay with CL4176 worms is shown (FIG. 13A). Peptide treatment began on CL4176 embryos and continued throughout the experiment. After 2 days at 15° C., the temperature was increased to the restrictive temperature of 25° C. Worms were scored for survival and paralysis.
Example images of paralyzed and non-paralyzed worms are shown (FIG. 13C).

[5] = test system: C. elegans wild-type (N2 strain); experiment: Paraquat (PQ)-induced oxidative stress survival; assay type: in vivo; settings: five-day old N2 worms, 50 μg peptide 24 hours, 50 mM PQ
Description: Five-day old N2 worms were pretreated with 50 μg peptide for 24 hours and subjected to 50 mM PQ. The survival of the worms was monitored every hour under a microscope until the end of survival. […] The median survival value (50% survival) in CPPRAMC, CPAMC, and CP-SC (control) peptides corresponds to 9.6 h, 8.9 h and 5.9 h, respectively, as compared to vehicle control (5.5 h) (FIG. 14).

C. elegans (N2) worms = experiment: Juglone (JG)-induced oxidative stress survival; assay type: in vivo; settings: N2 worms at day 5, 50 μg peptide 24 h, 50 μM JG
Description: N2 worms at day 5 pretreated for 24 h with 50 μg CPAMC or CP-SC (control) and subjected to 50 μM JG. Survival was checked every hour under a microscope until the end of survival. The median survival value in CPAMC and CP-SC (control) peptides corresponds to 7.3 h and 5.9 h, respectively, compared to vehicle control (4.9 h) (FIG. 15).

[6] = test system: ARPE-19 cells, hiPSC-NSC cultures, and NSC-derived neurons

## CC[C@@H](C)[C@@H](NC(=O)[C@H](NC(=O)[C@@H](Cc1ccccc1)NC(=O)[C@@H](CC(C)C)NC)C(C)C)C(=O)N[C@H](Cc1ccccc1)C(=O)N[C@H](CC(C)C)C(=O)N[C@@H](C(=O)N[C@H](Cc1c[nH]cn1)C(=O)N[C@H](Cc1ccccc1)C(=O)N[C@H](CO)C(=O)N1CCC[C@@H]1C(=O)NCC(=O)N[C@H](CCCNC(=N)N)C(=O)N[C@H](CC(=O)O)C(=O)N[C@H](CCC(=O)O)C(=O)N[C@H](CC(=O)O)C(=O)N[C@H](CCCCN)C(=O)N[C@H](CC(=O)O)C(=O)N[C@H](CCC(=O)O)C(=O)N[C@H](CCCCN)C(N)=O)C(C)C [CPPRAMC, CH3-lfviflvhfspgrdedkdek-NH2] (H-[dNMeL][dF][dV][dI][dF][dL][dV][dH][dF][dS][dP]G[dR][dD][dE][dD][dK][dD][dE][dK]-NH2; N-terminus and C-terminus assumed)
Proteinase K
  resistance to proteolytic cleavage: resistant to proteolytic cleavage
[1]
  entry of peptide into cells: readily penetrates neural cells

## CCCCCCCCCCCCCC(=O)N[C@@H](CCCCN)C(=O)N[C@@H](CC(C)C)C(=O)N[C@@H](Cc1ccccc1)C(=O)N[C@H](C(=O)N[C@H](C(=O)N[C@@H](Cc1ccccc1)C(=O)N[C@@H](CC(C)C)C(=O)N[C@H](C(=O)N[C@@H](Cc1c[nH]cn1)C(=O)N[C@@H](Cc1ccccc1)C(=O)N[C@@H](CO)C(=O)N1CCC[C@H]1C(=O)NCC(=O)N[C@@H](CCCNC(=N)N)C(=O)N[C@@H](CC(=O)O)C(=O)N[C@@H](CCC(=O)O)C(=O)N[C@@H](CC(=O)O)C(=O)N[C@@H](CCCCN)C(=O)N[C@@H](CC(=O)O)C(=O)N[C@@H](CCC(=O)O)C(=O)N[C@@H](CCCCN)C(N)=O)C(C)C)[C@@H](C)CC)C(C)C [Myr-CPAMC] (Myristoyl-KLFVIFLVHFSPGRDEDKDEK-NH2)
Human red blood cells
  hemolysis by melittin in presence of peptide: protects human red blood cells (RBC) from melittin-induced hemolysis
ARPE-19 cells [2]
  percentage of dead cells with sodium iodate and peptide: protects ARPE-19 cells from sodium iodate-induced cytotoxicity
ARPE-19 cells [3]
  toxicity of peptide to cells: non-toxic to cells

## CH3-DFVIFLDVKHFSPEDLTVK-NH2 (Me-DFVIFLDVKHFSPEDLTVK-NH2; SMILES CC[C@H](C)[C@H](NC(=O)[C@@H](NC(=O)[C@H](Cc1ccccc1)NC(=O)[C@H](CC(=O)O)NC)C(C)C)C(=O)N[C@@H](Cc1ccccc1)C(=O)N[C@@H](CC(C)C)C(=O)N[C@@H](CC(=O)O)C(=O)N[C@H](C(=O)N[C@@H](CCCCN)C(=O)N[C@@H](Cc1c[nH]cn1)C(=O)N[C@@H](Cc1ccccc1)C(=O)N[C@@H](CO)C(=O)N1CCC[C@H]1C(=O)N[C@@H](CCC(=O)O)C(=O)N[C@@H](CC(=O)O)C(=O)N[C@@H](CC(C)C)C(=O)N[C@H](C(=O)N[C@H](C(=O)N[C@@H](CCCCN)C(N)=O)C(C)C)[C@@H](C)O)C(C)C) [MC-αA, Parent peptide from αA crystallin]
[4]
  Median Lifespan (Days ± SE): 16.10 ± 0.25 days
  Increase in median survival (%): 20* %

## CH3-VPTLKdlplknvedkfhrsfvesvk-NH2 [CP-cp, reference compound]
[4]
  Median Lifespan (Days ± SE): 13.23 ± 0.20 days
  Increase in median survival (%): 0%
C. elegans (N2 strain); 35° C., 50 μg peptide, vs control
  % increase in survival: 0%
C. elegans (N2 strain); 24 hours 50 μg peptide at 20° C., then 35° C.
  Median survival ± SE (hours at 35° C.): 7.4 ± 0.4 h
CL2006 C. elegans
  Median survival ± SE (days at 20° C.): 7.0 ± 0.28 days
CL2006 C. elegans; vs control
  % increase in survival: 2.0%
CL4176 C. elegans; 25° C., vs control
  % increase in median survival: 0%
CL4176 C. elegans; 2 days at 15° C., then 25° C.
  Median survival Hours ± SE: 44.7 ± 0.4 h
[5]
  median survival value (50% survival): 5.9 h
C. elegans (N2) worms
  median survival value: 5.9 h

## Myristoyl-{K(TMR)}LFVIFLVHFSPGRDEDKDEK-NH2 (Myristoyl-K(TMR)LFVIFLVHFSPGRDEDKDEK-NH2) [Myr-(TMR)-CPAMC]
ARPE-19 cells [3]
  toxicity of peptide to cells: not toxic to cells
[6]
  entry of peptide into cells: can enter into ARPE-19 cells at different concentrations
